Measured values published in US20260124311A1, “POLYMER-DRUG CONJUGATES FOR STING PATHWAY ACTIVATION” (Vanderbilt University, priority 2022, published 2026).
Read-outs that look alike come from different tables or passages of the source.

Assays:
[1] = E0771 tumor bearing mice, approximately 0.012 μmol diABZI/mouse, organs after 24 hours
[2] = test system: E0771 murine breast tumors; assay: Therapeutic efficacy in E0771 murine breast tumor model; conditions: approximately 0.009 μmol drug/mouse every 4 days, 3 treatments
STING [3] = target: T1, STING (Homo sapiens, UniProt Q86WV6, G230A/H232R/R293Q/R71H); assay: THP1-Dual reporter assay (IRF-luciferase, Quanti-Luc) for activation of STING; type: cell-based; conditions: for STING activation / interferon production in THP-1 Dual reporter cells, in words: qualitative comparison of dose-response curves
T1 construct: host or cells: THP1-Dual cells
Method: Activation of STING. […] Cells were subjected to 10 μg/mL Blasticidin and 100 μg/mL Zeocin for continual selection after every cell passage. […] Reporter cells were seeded at 25,000 cells/well in 100 μL media and treatments were administered in 100 μL of medium.

IRF and NF-kb pathway = assay: THP-1 Dual reporter assay of IRF and NF-kb pathway activation; type: cell-based, human; conditions: FIG. 19A-B
Method: Activation of STING. THP1-Dual cells (InvivoGen) were cultured in Roswell Park Memorial Institute (RPMI) 1640 Medium (Gibco) supplemented with 2 mM L-glutamine, 25 mM HEPES, 10% heat-inactivated fetal bovine serum (HI-FBS; Gibco), 100 U mL^−1, penicillin/100 μg mL^−1, streptomycin (Gibco), and 100 μg/mL Normocin. Cells were subjected to 10 μg/mL Blasticidin and 100 μg/mL Zeocin for continual selection after every cell passage. 96-well plates (REF 655180; Greiner Bio-One) were used for screening agonist activity. Reporter cells were seeded at 25,000 cells/well in 100 μL media and treatments were administered in 100 μL of medium. Results were collected 24 hours after treatment using a Quanti-Luc™ (InvivoGen) assay on cell supernatants following manufacturer's instructions. Luminescence was quantified using a plate reader (Synergy H1 Multi-Mode Microplate Reader; Biotek) after supernatants were transferred to opaque-bottom 96-well plates (REF 655073; Greiner Bio-One).

[4] = test system: STING knockout THP1 Dual cell line; assay: STING knockout THP1 Dual cell line reporter assay; type: cell-based, human; conditions: FIG. 19C-D
[5] = target: T2, recombinant human STING (hSTING; STING isoform 1) (Homo sapiens, UniProt Q86WV6); assay: Isothermal calorimetry (ITC) binding to recombinant human STING
T2 construct: made in house; host or cells: Escherichia coli (New England Biolabs, T7 Shuffle Express line)
Method: hSTING Binding Studies. […] Buffer exchange was performed prior to ITC (pH 7.5: PBST, 150 mM NaCl, 3 mM EDTA, 0.05% Tween 20), using Amicon Ultra 4 mL centrifugal filters (Millipore, Etobicoke, Canada). ITC experiments were performed on a TA Instruments Affinity ITC instrument. 24 total injections were performed using the following instrument settings: cell temperature 25° C., reference power 10 μCal/second, initial delay 240 seconds, stirring speed 75 rpm, feedback mode/gain high, and injection volume 2 μL for 10 seconds spaced at 120 second intervals with a filter period of 10 seconds. hSTING was set in the cell at a concentration of 10 μM and a volume of 350 μL. […] Data were analyzed using TA Instruments NanoAnalyze Software.

[6] = target: T3, Recombinant Mouse Cathepsin B (Mus musculus, UniProt P10605); assay: Cathepsin-B release / enzyme cleavability assay with MALDI-MS; type: biochemical; conditions: 50 μM substrate, 0.2 μM cathepsin B
T3 construct: purchased RND Systems
Method: Enzyme Cleavability Studies. Recombinant Mouse Cathepsin B (RND Systems) was prepared at 50 μM in MES buffer (pH 5.0) upon opening and kept in −80° C. conditions when not in use. To activate the enzyme, Cathepsin B was diluted to 0.2 μM in MES buffer (pH 5.0) containing 1 mM EDTA and 2 mM DTT and placed at 37° C. for 15 minutes. After activation, Cathepsin B was combined with 50 μM of substrate at 37° C. for 37 hours at a total volume of 100 μL. Activity was determined by observing molecular weight shifts in the substrate using matrix assisted laser desorption and ionization mass spectrometry (MALDI-MS). 4 μL of Matrix (20 mg mL^−1 THAP and 20 mg mL^−1 CHCA in dry acetone) was combined with 1 μL of sample from the Cathepsin B activity assay and spotted on a stainless steel MALDI-MS plate (Bruker). After evaporation of matrix, three technical replicates were collected for each spot using FlexControl software (Bruker Daltonics) on a Bruker AutoFlex MALDI-TOF. The laser pulse rate was 1000 Hz and spectra were obtained with a mass window of 600-5000 m/z at high resolution (4.00 GS/s). FlexAnalysis software (Bruker Daltonics) was used to perform unbiased smoothing and obtain baseline spectra for all samples. Spectra were exported to Microsoft Excel and spectra were plotted using MATLAB.

STING [7] = target: T4, STING (Mus musculus, UniProt Q3TBT3); assay: Interferon-β sandwich ELISA on isolated primary murine splenocytes; type: cell-based
T4 construct: from tissue; host or cells: primary splenocytes from spleens of female C57BL/6 mice
T4 sequence (Q3TBT3 1-378): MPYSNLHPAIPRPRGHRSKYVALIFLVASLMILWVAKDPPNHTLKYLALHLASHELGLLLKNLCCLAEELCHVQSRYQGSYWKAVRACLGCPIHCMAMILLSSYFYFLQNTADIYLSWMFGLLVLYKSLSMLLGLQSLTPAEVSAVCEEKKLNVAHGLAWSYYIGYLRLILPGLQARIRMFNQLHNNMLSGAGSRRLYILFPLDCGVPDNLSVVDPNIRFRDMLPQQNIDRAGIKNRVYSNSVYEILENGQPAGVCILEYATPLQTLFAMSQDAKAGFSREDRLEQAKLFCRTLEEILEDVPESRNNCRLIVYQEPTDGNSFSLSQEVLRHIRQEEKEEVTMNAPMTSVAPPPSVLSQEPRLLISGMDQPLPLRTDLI
Method: The activity in primary murine splenocytes, which comprises a mixture of different immune cell populations, using ELISA was used to quantify secreted interferon-β (IFN-β), a signature cytokine of STING pathway activity.
Secretion of Interferon-β (IFN-β) ELISA. […] Cells were centrifuged and resuspended in fresh media at a concentration of 3 million cells per mL. Cells were seeded in a 96-well round bottom plate at 100 μL per well and treatments were administered in 100 μL of medium.

B16.F10 melanoma = conditions: intravenous, every 3 days, 3 treatments, 0.035 umol diABZI/mouse
Method: Tumor volume was measured until day 18 when the first tumor reached 1500 mm^3 (FIG. 9E).

THP-1 Dual cells = assay: Cellular uptake by flow cytometry at 37° C. and 4° C.; type: cell-based, human; conditions: FIG. 22A-B
Text: To confirm the dependence of cellular uptake on endocytosis, a RAFT polymerization was used to synthesize a fluorescent version of 50 kDa DMA-diABZI (36) in which a small amount of azide propyl methacrylamide (2%) was co-polymerized to allow for covalent conjugation to DBCO-Sulfo-Cy5 dye, yielding compound (37), which had 2 Sulfo-Cy5 molecules per chain. […] Therefore, DMA-diABZI appears to cells via endocytosis where it can activate STING signaling within ˜2 hr.

[8] = FIG. 5, IRF signaling at 24 hours, read-out: EC50, STING activation in THP-1 Dual reporter cell lines
[9] = Table 2, FIG. 18A, IRF signaling in THP-1 Dual reporter cells, read-out: EC50 value
[10] = FIG. 3A, 24 hours, read-out: estimated EC50, IRF signaling in THP1-Dual reporter cells
[11] = FIG. 3B, 24 hours, read-out: EC50, IFN-β production in primary murine splenocytes (ELISA)

T1 sequence (Q86WV6 whole entry R71H/G230A/H232R/R293Q): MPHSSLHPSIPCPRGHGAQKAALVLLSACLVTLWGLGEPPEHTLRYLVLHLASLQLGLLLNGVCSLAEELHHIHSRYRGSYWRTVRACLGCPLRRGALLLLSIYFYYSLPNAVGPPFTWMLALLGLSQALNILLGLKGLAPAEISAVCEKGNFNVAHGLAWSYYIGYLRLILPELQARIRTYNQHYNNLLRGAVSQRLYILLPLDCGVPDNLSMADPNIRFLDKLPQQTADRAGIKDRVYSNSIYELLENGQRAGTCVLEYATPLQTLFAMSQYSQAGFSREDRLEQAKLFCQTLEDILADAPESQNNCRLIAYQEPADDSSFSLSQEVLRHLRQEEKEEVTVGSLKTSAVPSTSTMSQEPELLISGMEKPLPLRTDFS
T2 sequence (Q86WV6 whole entry H232R, canonical isoform): as the sequence (Q86WV6 whole entry R71H/G230A/H232R/R293Q) above, with H71R, A230G, Q293R counted along it
T3 sequence (P10605 80-333 limits assumed): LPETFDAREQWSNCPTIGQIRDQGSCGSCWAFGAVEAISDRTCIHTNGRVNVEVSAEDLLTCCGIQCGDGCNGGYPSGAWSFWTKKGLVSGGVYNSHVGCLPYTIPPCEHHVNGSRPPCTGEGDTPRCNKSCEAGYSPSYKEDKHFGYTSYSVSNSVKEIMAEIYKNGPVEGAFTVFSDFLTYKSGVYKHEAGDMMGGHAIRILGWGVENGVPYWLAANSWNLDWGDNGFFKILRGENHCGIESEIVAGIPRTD

25 kDa-poly(dimethylacrylamide-co-azidethylmethacrylate)-graft-diamidobenzimidazole) [25 kDa DMA-g-V/C-diABZI (28)]
organ accumulation (biodistribution) [1]: accumulation in the kidney, tumor, and liver
survival [2]: longer than the control and non-polymer conjugated compound
treated mice with complete tumor regression [2]: approximately 20%

100 kDa-poly(dimethylacrylamide-co-azidethylmethacrylate)-graft-diamidobenzimidazole) [100 kDa DMA-g-V/C-diABZI (29)]
organ accumulation (biodistribution) [1]: accumulation mainly in the liver and tumor
survival [2]: longer than the control and non-polymer conjugated compound
treated mice with complete tumor regression [2]: ~37.5%

C#CCOC(=O)Nc1ccc(COC(=O)NCCCOc2cc(C(N)=O)cc3nc(NC(=O)c4cc(C)nn4CC)n(C/C=C/Cn4c(NC(=O)c5cc(C)nn5CC)nc5cc(C(N)=O)cc(OC)c54)c23)cc1 [Alkyne-PAB-diABZI (4), Alkyne-PAB-diABZI]
STING activation / interferon production in THP-1 Dual reporter cells, in words (STING [3]): decrease in STING activation

CCn1nc(C)cc1C(=O)Nc1nc2cc(C(N)=O)cc(OC)c2n1C/C=C/Cn1c(NC(=O)c2cc(C)nn2CC)nc2cc(C(N)=O)cc(OCCCNC(=O)CCCCC(=O)N3Cc4ccccc4C#Cc4ccccc43)c21 [diABZI-DBCO (8), diABZI-DBCO]
STING activation / interferon production in THP-1 Dual reporter cells, in words (STING [3]): elicit STING activation

CCSC(=S)SC(C)(C#N)CCC(=O)NCCCOc1cc(C(N)=O)cc2nc(NC(=O)c3cc(C)nn3CC)n(C/C=C/Cn3c(NC(=O)c4cc(C)nn4CC)nc4cc(C(N)=O)cc(OC)c43)c12 (centres unmarked) [diABZI-ECT (10), diABZI-ECT]
EC50 (STING [3]; [8]): 3.06 nM
EC50 (STING [3]; [9]): 7.21 nM
STING activation / interferon production in THP-1 Dual reporter cells, in words (STING [3]): significantly more potent than diABZI-amine (1)
STING activation / interferon production in THP-1 Dual reporter cells, in words (STING [3]; listed as 10): nearly identical STING activation
IRF and NF-kb pathway activation (IRF and NF-kb pathway): both signaling pathways are engaged
IRF and NF-κβ responses in STING knockout cells [4]: lack of activity

CCn1nc(C)cc1C(=O)Nc1nc2cc(C(N)=O)cc(OC)c2n1C/C=C/Cn1c(NC(=O)c2cc(C)nn2CC)nc2cc(C(N)=O)cc(OCCCNC(=O)CCCCCN3C(=O)C=CC3=O)c21 [diABZI-Mal (2), diABZI-Mal]
Kd [5]: 890 ± 547 nM
cathepsin B cleavage (molecular weight shift by MALDI-MS) [6]: no change in molecular weight
EC50 (STING [3]; [10]): 20.5 nM
EC50 (STING [7]; [11]): ~3.62 nM

CCSC(=S)SC(C)(C#N)CCC(=O)NCCSSCCC(=O)NCCCOc1cc(C(N)=O)cc2nc(NC(=O)c3cc(C)nn3CC)n(C/C=C/Cn3c(NC(=O)c4cc(C)nn4CC)nc4cc(C(N)=O)cc(OC)c43)c12 (centres unmarked) [diABZI-SS-ECT (11), diABZI-SS-ECT]
EC50 (STING [3]; [8]): 4.09 nM
STING activation / interferon production in THP-1 Dual reporter cells, in words (STING [3]): significantly more potent than diABZI-amine (1)

CCn1nc(C)cc1C(=O)Nc1nc2cc(C(N)=O)cc(OC)c2n1C/C=C/Cn1c(NC(=O)c2cc(C)nn2CC)nc2cc(C(N)=O)cc(OCCCNC(=O)OCc3ccc(NC(=O)[C@H](CCCNC(N)=O)NC(=O)[C@@H](NC(=O)CCCCC(=O)N4Cc5ccccc5C#Cc5ccccc54)C(C)C)cc3)c21 [diABZI-V/C-DBCO (9), diABZI-V/C-DBCO]
STING activation / interferon production in THP-1 Dual reporter cells, in words (STING [3]): elicit STING activation

CCn1nc(C)cc1C(=O)Nc1nc2cc(C(N)=O)cc(OC)c2n1C/C=C/Cn1c(NC(=O)c2cc(C)nn2CC)nc2cc(C(N)=O)cc(OCCCNC(=O)OCc3ccc(NC(=O)[C@H](CCCNC(N)=O)NC(=O)[C@@H](NC(=O)CCCCCN4C(=O)C=CC4=O)C(C)C)cc3)c21 [diABZI-V/C-Mal (3), diABZI-V/C-Mal]
Kd [5]: 207 ± 150 nM
cathepsin B cleavage (molecular weight shift by MALDI-MS) [6]: shift in molecular weight from 1400.8 Da to 801.83 Da
EC50 (STING [3]; [10]): 314 nM
EC50 (STING [7]; [11]): ~3.38 nM

CCn1nc(C)cc1C(=O)Nc1nc2cc(C(N)=O)cc(OC)c2n1C/C=C/Cn1c(NC(=O)c2cc(C)nn2CC)nc2cc(C(N)=O)cc(OCCCN)c21 [diABZI-amine (1), (E)-7-(3-aminopropoxy)-1-(4-(5-carbamoyl-2-(1-ethyl-3-methyl-1H-pyrazole-5-carboxamido)-7-methoxy-1H-benzo[d]imidazol-1-yl)but-2-en-1-yl)-2-(1-ethyl-3-methyl-1H-pyrazole-5-carboxamido)-1H-benzo[d]imidazole-5-carboxamide]
Kd [5]: 70 ± 62 nM
EC50 (STING [3]; [10]): 60.9 nM
EC50 (STING [3]; [9]): 78.6 nM
EC50 (STING [7]): ~2.24 nM
tumor growth inhibition (B16.F10 melanoma): inhibited tumor growth to a comparable degree

C=C(C)C(=O)OCCSSCCC(=O)NCCCOc1cc(C(N)=O)cc2nc(NC(=O)c3cc(C)nn3CC)n(C/C=C/Cn3c(NC(=O)c4cc(C)nn4CC)nc4cc(C(N)=O)cc(OC)c43)c12 [diABZI-disulfide-methacrylate (15), diABZI-disulfide-methacrylate]
STING activation / interferon production in THP-1 Dual reporter cells, in words (STING [3]): nearly identical STING activation

C=C(C)C(=O)OCCCCCC(=O)NCCCOc1cc(C(N)=O)cc2nc(NC(=O)c3cc(C)nn3CC)n(C/C=C/Cn3c(NC(=O)c4cc(C)nn4CC)nc4cc(C(N)=O)cc(OC)c43)c12 [diABZI-methacrylate (14), diABZI-methacrylate]
STING activation / interferon production in THP-1 Dual reporter cells, in words (STING [3]): nearly identical STING activation

diABZI(CTA)-SS-poly-DMA (50k) [50 kDa diABZI-SS-DMA (35)]
STING activation / interferon production in THP-1 Dual reporter cells, in words (STING [3]): activated STING in a similar range as the stably linked constructs

diABZI-5k PEG [diABZI-5k PEG (17)]
STING activation / interferon production in THP-1 Dual reporter cells, in words (STING [3]): slightly higher activity

diABZI-20k PEG [diABZI-20k PEG (18)]
STING activation / interferon production in THP-1 Dual reporter cells, in words (STING [3]): slightly higher activity
tumor growth inhibition (B16.F10 melanoma): inhibited tumor growth to a comparable degree

diABZI-DMA-co-AzPMA-Sulfo-Cy5 [sCy5-labeled DMA-diABZI (37)]
cellular uptake at 4° C. versus 37° C. (THP-1 Dual cells): nearly completely abrogated

diABZI-V/C-2k PEG [diABZI-V/C-2k PEG (19)]
STING activation / interferon production in THP-1 Dual reporter cells, in words (STING [3]): active

diABZI-V/C-5k PEG [diABZI-V/C-5k PEG (20)]
STING activation / interferon production in THP-1 Dual reporter cells, in words (STING [3]): active

diABZI-V/C-20k PEG [diABZI-V/C-20k PEG (21)]
STING activation / interferon production in THP-1 Dual reporter cells, in words (STING [3]): active
tumor growth inhibition (B16.F10 melanoma): inhibited tumor growth to a comparable degree
